Measured values reported in ChEMBL document CHEMBL1201862, “PubChem BioAssay data set” (2004).
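Results reflect a 48-hour exposure of cells in 96-well plates to compound at five concentrations. The concentration for 50% growth inhibition is given as GI50.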 Activity calls are given as the source filed them. Rule as the data show it: active = GI50 up to about 1.1 µM and inactive = higher.

Experiments:
Test in all cases: NCI anticancer screen, dose series, 48 h
[1] = tested on: SW-620
[2] = tested on: U-251
[3] = tested on: A498
[4] = tested on: SNB-75
[5] = tested on: BT-549
[6] = tested on: SN12C
[7] = tested on: PC-3
[8] = tested on: SF-268
[9] = tested on: Malme-3M
[10] = tested on: NCI-H460
[11] = tested on: MCF7
[12] = tested on: Hs-578T
[13] = tested on: ACHN
[14] = tested on: SK-MEL-28
[15] = tested on: OVCAR-3
[16] = tested on: NCI-H23
[17] = tested on: DU-145
[18] = tested on: NCI-H226
[19] = tested on: HCT-116
[20] = tested on: UO-31

Structure (SMILES) | GI50 [1] | GI50 [2] | GI50 [3] | GI50 [4] | GI50 [5] | GI50 [6] | GI50 [7] | GI50 [8] | GI50 [9] | GI50 [10] | GI50 [11] | GI50 [12] | GI50 [13] | GI50 [14] | GI50 [15] | GI50 [16] | GI50 [17] | GI50 [18] | GI50 [19] | GI50 [20]
O=C1C2C=CC1C1C(=O)OC(=O)C21 (configuration not stated) | > 100 µM (inactive) | > 100 µM (inactive) | > 100 µM (inactive) | > 100 µM (inactive) | > 100 µM (inactive) | > 100 µM (inactive) | > 100 µM (inactive) | > 100 µM (inactive) | > 100 µM (inactive) | > 100 µM (inactive) | > 100 µM (inactive) | > 100 µM (inactive) | > 100 µM (inactive) | > 100 µM (inactive) | > 100 µM (inactive) | > 100 µM (inactive) | > 100 µM (inactive) | > 100 µM (inactive) | > 100 µM (inactive) | > 100 µM (inactive)
N/C(=N\N=C\c1c[nH]c2ccccc12)Nc1ccccc1 | 0.122 µM (active) | 0.315 µM (active) | 0.256 µM (active) | 0.378 µM (active) | 0.527 µM (active) | 0.535 µM (active) | 0.201 µM (active) | 0.573 µM (active) | 0.215 µM (active) | 0.251 µM (active) | 0.185 µM (active) | 0.14 µM (active) | 0.671 µM (active) | 0.789 µM (active) | 0.134 µM (active) | 0.308 µM (active) | 0.314 µM (active) | 1.74 µM (inactive) | 0.214 µM (active) | 0.721 µM (active)
NS(=O)(=O)c1nnc(/N=C(/CCC(=O)O)C(=O)O)s1 | > 100 µM (inactive) | > 100 µM (inactive) | > 100 µM (inactive) | > 100 µM (inactive) | > 100 µM (inactive) | > 100 µM (inactive) | > 100 µM (inactive) |  | 41.3 µM (inactive) | > 100 µM (inactive) | > 100 µM (inactive) | > 100 µM (inactive) | > 100 µM (inactive) | > 100 µM (inactive) | > 100 µM (inactive) | > 100 µM (inactive) | > 100 µM (inactive) | > 100 µM (inactive) | > 100 µM (inactive) | > 100 µM (inactive)
C=C1c2nc3ccccc3n2C=C(c2ccccc2)N1c1ccc(Cl)cc1 | 26.5 µM (inactive) | 13.1 µM (inactive) | > 48.9 µM (inactive) | 5.12 µM (inactive) | 23.4 µM (inactive) | > 63.5 µM (inactive) | 25.7 µM (inactive) | > 100 µM (inactive) | 7.85 µM (inactive) | 12.6 µM (inactive) | 11.2 µM (inactive) | 21.3 µM (inactive) | 9.18 µM (inactive) | > 100 µM (inactive) | 20 µM (inactive) | 33.1 µM (inactive) | 59.8 µM (inactive) | 29 µM (inactive) | 18.5 µM (inactive) | 53.1 µM (inactive)
COC1CCN(N(C)C)O1 (configuration not stated) | > 100 µM (inactive) | > 100 µM (inactive) | > 100 µM (inactive) | > 100 µM (inactive) | > 100 µM (inactive) | > 100 µM (inactive) | > 100 µM (inactive) | > 100 µM (inactive) | > 100 µM (inactive) | > 100 µM (inactive) | > 100 µM (inactive) | > 100 µM (inactive) | > 100 µM (inactive) | > 100 µM (inactive) | > 100 µM (inactive) | > 100 µM (inactive) | > 100 µM (inactive) | > 100 µM (inactive) | > 100 µM (inactive) | > 100 µM (inactive)
Cc1cc(Nc2ccc(S(=O)(=O)O)cc2)c2ccccc2n1 | > 100 µM (inactive) | > 100 µM (inactive) | > 100 µM (inactive) | > 100 µM (inactive) | > 100 µM (inactive) | > 100 µM (inactive) | > 100 µM (inactive) | > 100 µM (inactive) | > 100 µM (inactive) |  | > 100 µM (inactive) | > 100 µM (inactive) | > 100 µM (inactive) | > 100 µM (inactive) | > 100 µM (inactive) | > 100 µM (inactive) | > 100 µM (inactive) | > 100 µM (inactive) | > 100 µM (inactive) | > 100 µM (inactive)
C[C@]12Cc3cnc(-c4ccccc4)nc3C[C@@H]1CC[C@@H]1[C@@H]2CC[C@@]2(C)[C@H]1CC[C@]2(C)O | 21.2 µM (inactive) | 16 µM (inactive) | 16.3 µM (inactive) | 6.12 µM (inactive) | 23 µM (inactive) | 17.9 µM (inactive) | 13.9 µM (inactive) | 12.9 µM (inactive) | 18.9 µM (inactive) | 17.3 µM (inactive) | 19.3 µM (inactive) | 17.4 µM (inactive) | 14.2 µM (inactive) | 18.6 µM (inactive) | 23.5 µM (inactive) | 17.6 µM (inactive) | 17.9 µM (inactive) | 26.1 µM (inactive) | 17.4 µM (inactive) | 3.03 µM (inactive)
Clc1cc2c(cc1Cl)CC(NCCN1CCCC1)CC2 (configuration not stated) | 18.9 µM (inactive) | 15.9 µM (inactive) | 13.7 µM (inactive) |  | 15 µM (inactive) | 15.8 µM (inactive) | 15.1 µM (inactive) | 15.3 µM (inactive) | 10.8 µM (inactive) | 16.4 µM (inactive) | 15.6 µM (inactive) | 21.2 µM (inactive) | 17.9 µM (inactive) | 10.2 µM (inactive) | 17.1 µM (inactive) | 16 µM (inactive) | 14.7 µM (inactive) | 15.2 µM (inactive) | 12.9 µM (inactive) | 11.1 µM (inactive)
CN(C)c1ccc(/C=C2\N=C(c3ccccc3)N(c3ccc4c(c3)Sc3cc(N5C(=O)/C(=C/c6ccc(N(C)C)cc6)N=C5c5ccccc5)ccc3N4)C2=O)cc1 | 44.7 µM (inactive) | 15.6 µM (inactive) | 16.8 µM (inactive) | 11.9 µM (inactive) | 22.9 µM (inactive) | 19.1 µM (inactive) | 16.9 µM (inactive) | 19.2 µM (inactive) |  | 23.9 µM (inactive) | 17 µM (inactive) | 27.1 µM (inactive) | 16.7 µM (inactive) | 50.8 µM (inactive) | 12.2 µM (inactive) |  | 22.1 µM (inactive) |  | 26.3 µM (inactive) | 18.2 µM (inactive)
COc1ccc(C(OCC2OC(n3cc(C)c(=O)[nH]c3=O)CC2n2cc(Cn3cc(I)c(=O)[nH]c3=O)nn2)(c2ccccc2)c2ccccc2)cc1 (configuration not stated) | > 100 µM (inactive) | > 100 µM (inactive) | > 100 µM (inactive) | 48.6 µM (inactive) | > 100 µM (inactive) | > 100 µM (inactive) | > 100 µM (inactive) | 78.5 µM (inactive) | > 100 µM (inactive) |  | > 100 µM (inactive) | 44.8 µM (inactive) | > 100 µM (inactive) | > 100 µM (inactive) | > 100 µM (inactive) | > 100 µM (inactive) | > 100 µM (inactive) | > 100 µM (inactive) | > 100 µM (inactive) | > 100 µM (inactive)
CC1OC(O[C@H]2CC[C@]3(C)[C@H]4CC=C5[C@@H]6[C@@H](C)[C@H](C)CC[C@]6(C(=O)OC6OC(CO)C(O)C(O)C6O)CC[C@@]5(C(=O)O)[C@]4(C)CC[C@H]3C2(C)C)C(O)C(O)C1O (some centres not stated) | > 100 µM (inactive) | > 100 µM (inactive) | > 100 µM (inactive) | > 100 µM (inactive) | > 100 µM (inactive) | > 100 µM (inactive) | > 100 µM (inactive) | > 100 µM (inactive) |  | > 100 µM (inactive) | > 100 µM (inactive) | > 100 µM (inactive) | > 100 µM (inactive) |  | > 100 µM (inactive) | > 100 µM (inactive) | > 100 µM (inactive) |  | > 100 µM (inactive) | > 100 µM (inactive)
[O-][n+]1cc(SCc2ccccc2)ncc1SCc1ccccc1 |  | > 10 µM (inactive) | > 10 µM (inactive) | > 10 µM (inactive) | 0.811 µM (active) | > 10 µM (inactive) | > 10 µM (inactive) | > 10 µM (inactive) | > 10 µM (inactive) | > 10 µM (inactive) | > 10 µM (inactive) | > 10 µM (inactive) | > 10 µM (inactive) | > 10 µM (inactive) | > 10 µM (inactive) | > 10 µM (inactive) | > 10 µM (inactive) | > 10 µM (inactive) | > 10 µM (inactive) | > 10 µM (inactive)
CCCCCCc1nn2c(-c3ccncc3)nnc2s1 | > 10 µM (inactive) | > 10 µM (inactive) | > 10 µM (inactive) |  | > 10 µM (inactive) | > 10 µM (inactive) | > 10 µM (inactive) | > 10 µM (inactive) | > 10 µM (inactive) | > 10 µM (inactive) | > 10 µM (inactive) | > 10 µM (inactive) | > 10 µM (inactive) | > 10 µM (inactive) | > 10 µM (inactive) | > 10 µM (inactive) | > 10 µM (inactive) | > 10 µM (inactive) | > 10 µM (inactive) | 1.42 µM (inactive)
CC(C)(C)OC(=O)N(CCCCNC(=O)C(F)(F)F)CCCNC(=O)C(F)(F)F | > 100 µM (inactive) | > 100 µM (inactive) | > 100 µM (inactive) | > 100 µM (inactive) | > 100 µM (inactive) | > 100 µM (inactive) | > 100 µM (inactive) | > 100 µM (inactive) |  | > 100 µM (inactive) | > 100 µM (inactive) | > 100 µM (inactive) | > 100 µM (inactive) | > 100 µM (inactive) | > 100 µM (inactive) | > 100 µM (inactive) | > 100 µM (inactive) | > 100 µM (inactive) | > 100 µM (inactive) | > 100 µM (inactive)
